For twelve molecules, IC50 results are on record in patent US5612356A, “Heterocycle-containing carbonic acid derivatives” (Eisai Co., Ltd., priority 1992, dated 1997).

The target in test [1] is T1, retinoic acid receptor (RAR) (Homo sapiens, UniProt P10276).
T1 construct: by the use of an extract from HL 60 cell nuclei; endogenous in cells; host or cells: HL60 human promyelocytic leukemia cells, 0.8 M KCl nuclear extract
T1 sequence (P10276 1-462): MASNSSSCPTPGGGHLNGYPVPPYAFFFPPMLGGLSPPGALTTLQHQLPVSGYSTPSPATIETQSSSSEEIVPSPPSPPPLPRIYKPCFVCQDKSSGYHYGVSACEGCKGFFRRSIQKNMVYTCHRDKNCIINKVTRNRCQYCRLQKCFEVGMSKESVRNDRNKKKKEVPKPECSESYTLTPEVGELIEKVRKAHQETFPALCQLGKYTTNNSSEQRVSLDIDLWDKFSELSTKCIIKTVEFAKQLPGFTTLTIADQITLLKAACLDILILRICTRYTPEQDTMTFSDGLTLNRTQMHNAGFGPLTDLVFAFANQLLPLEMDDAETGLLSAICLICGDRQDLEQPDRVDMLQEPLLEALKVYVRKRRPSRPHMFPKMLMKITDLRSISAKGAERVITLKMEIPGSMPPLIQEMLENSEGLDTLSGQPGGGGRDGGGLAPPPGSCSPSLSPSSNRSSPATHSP
As to the kind of experiment: Receptor binding assay using human promyelocytic leukemia cell HL60 (nuclear extract), inhibition of 3H-all-trans retinoic acid binding to RAR. The settings on record: HL60 cell nucleus extract, 4° C., 16 hours. Here is the method: Receptor binding assay using human promyelocytic leukemia cell, HL60
It has been known that a receptor for all-trans retinoic acid [i.e., retinoic acid receptor (RAR)] is present in the nucleus of HL 60 cell (see Clara Nervi et al., Proc. Natl. Acad. Sci. USA, 86, 5854 (1989)). Therefore, the extent of specific binding of all-trans retionic acid to RAR was determined by the use of an extract from HL 60 cell nuclei; and the ability of each compound to bind to RAR was determined based on the inhibitory activity of the compound against the above specific binding.
The above cell nucleus extract was prepared as follows.
HL 60 cells (5×10^8) were suspended in 15 ml of a solution A [comprising 5 mM of sodium phosphate (pH: 7.4), 10 mM of monothioglycerol,10% (v/v) of glycerol, 1 mM of phenylmethylsulfonyl fluoride (PMSF), 10 μg/ml of aprotinin and 25 μg/ml of leupeptin). The obtained suspension was homogenized with a homogenizer and centrifuged to remove a formed supernatant. The obtained sediment was suspended in 15 ml of a solution B [comprising 10 mM of Tris-HCl (pH: 8.5), 10 mM of monothioglycerol, 10% (v/v) of glycerol, 1 mM of PMSF, 10 μg/ml of aprotinin, 25 μg/ml of leupeptin and 0.8 M of KC1]. The obtained suspension was allowed to stand at 4° C. for one hour and ultracentrifuged (under the conditions of 100,000×g and 4° C. for one hour). The supernatant thus obtained was stored in a state freezed at -80° C. and used as the cell nucleus extract [see Methods in Enzymology, 189: 248).
The receptor binding assay was conducted as follows.
180 μl of the above extract and 10 μl of a dilution of all-trans retionic acid or a compound to be tested were put in each well of a 96-well polypropylene plate, followed by the addition thereto of ^3 H-all-trans retionic acid in an amount of 10 μl/well. The plate was allowed to stand at 4° C. for 16 hours. A solution containing 3% of charcoal and 0.3% of dextran was added to the reaction mixture in the well and the obtained mixture was centrifuged to remove free ^3 H-all-trans retionic acid. The intensity of radiation of the supernatant was determined with a scintillation counter. The extent of specific binding of all-trans retinoic acid to RAR was determined by taking the intensity of radiation, observed when 200-fold excess of all-trans retinoic acid was added, as that of a nonspecific binding, and substracting the intensity of radiation thus taken from that of the one determined above.

Test [2] deals with HL60 cell. Nature of the test: Antagonism against all-trans retinoic acid in inducing the differentiation of HL60 cell (CD11b-positive cells, flow cytometry). The test is classed as cell-based. The settings on record: Homo sapiens, HL-60, 120 h, all-trans retinoic acid 30 nM, 5 days. From the text: Antagonism against all-trans retinoic acid in inducing the differentiation of HL60 cell
It has been known that a human promyelocytic leukemia cell strain HL60 is differentiated into granulocytic cells in the presence of all-trans retinoic acid (see Breitman, T., Selonick, S., and Collins, S., Proc. Natl. Acad. Sci. USA, 77, 2936(1980)). Generally, a cell forms a specific differentiation antigen on its surface, when it has achieved differentiation. When an HL60 cell is differentiated into a granulocytic cell, CD11b which is an antigen discriminating granulocyte or monocute is formed on the surface of the cell (see Fontana, J. A., Reppuci, A., Durham, J. P., and Mirand, D., Cancer Res. 46, 2469 to 2473 (1986)). The antagonism against the differentiation of HL60 into granulocytic cell which is induced by all-trans retionic acid was studied by utilizing the above phenomenon.
HL60 cells were cultured and maintained in a culture medium prepared by adding 10% of inactivated bovine fetus serum, 1 mM of sodium pyruvate, 50 μM of β-mercaptoethanol, 100 I.U./ml of penicillin and 100 μg/ml of streptomycin to RPMI1640 (a culture medium formulated in Rosewell Park Memorial Institute).
The resulting plate was incubated in an incubator (5% CO2 /air) for 5 days. After the incubation, the cells of each well were recovered into a test tube, followed by the addition thereto of an FITC-labeled monoclonal antibody reactive with CD11b which is an antigen specific to granulocyte or monocute. The resulting cells were immobilized with 0.2% paraformaldehyde. The immobilized cell suspension was examined by flow cytometry for the proportion of CD11b-positive cells in the above HL60 cell group in each well (see Miller, L. J., Schwarting, R., and Springer, T. A., J. Immunol. 137, 2891 to 2900 (1986)).

One may read the IC50 as the concentration needed to halve the response being measured. Low readings indicate inhibition by little substance, high ones a need for much substance.

In the case of `CC1(C)CCC(C)(C)c2cc3c(cc21)CCc1c(-c2ccc(C(=O)O)cc2)cn(-c2cccnc2)c1-3` [Example 19], the figures for the IC50 in test [1] and in test [2] were 0.5 nM and 480 nM, respectively.
In the same order, the values of `CCn1nc(-c2ccc(C(=O)O)cc2)c2c1-c1cc3c(cc1CC2)C(C)(C)CCC3(C)C` [Example 1, 4-(1-Ethyl-4,5,7,8,9,10-hexahydro-7,7,10,10-tetramethylanthra[2,1-d]pyrazol-3yl)benzoic acid] are 4 nM and 700 nM.
`CC1(C)CCC(C)(C)c2cc3c(cc21)CCc1c(-c2ccc(C(=O)O)cc2)nn(Cc2ccccc2)c1-3` [Example 4]: the IC50 is under 0.5 nM in test [1] and 1000 nM in test [2].
As to `Cn1nc(-c2ccc(C(=O)O)cc2)c2ccc3cc4c(cc3c21)C(C)(C)CCC4(C)C` [Example 14, 4-(7,8,9,10-Tetrahydro-1,7,7,10,10-pentamethylanthra-[2,1-d]pyrazol-3-yl)benzoic acid], the figures for the 50% inhibitory concentration (IC50) in test [1] and in test [2] were 50 nM and 2200 nM, respectively.
For `CCCCCCCOc1cc2c(cc1/C(C)=C/c1ccc(C(=O)O)cc1)C(C)(C)CCS2(=O)=O` [Example R041-5253, reference compound], in that order: 9 nM and 7200 nM.
Regarding `Cn1nc(-c2ccc(C(=O)O)cc2)c2c1-c1cc3c(cc1SC2)C(C)(C)CCC3(C)C` [Example 11], the half-maximal inhibitory concentration (IC50) in test [1] was 9 nM; in test [2] it was 1200 nM.
Take `Cn1nc(-c2ccc(C(=O)O)cc2)c2c1-c1cc3c(cc1CC2)C(C)(C)CCC3(C)C` [Example 7, 4-(4,5,7,8,9,10-Hexahydro-1,7,7,10,10-pentamethylanthra[2,1-d]pyrazol-3-yl)benzoic acid]: the IC50 in test [1] is 22 nM; in test [2], 560 nM.
In the case of `CC1(C)CCC(C)(C)c2cc3c(cc21)CCc1c(-c2ccc(C(=O)O)cc2)cn(-c2ccccc2)c1-3` [Example 18], the values for the IC50 in test [1] and in test [2] were 4.2 nM and 2700 nM, respectively.
In the same order, the values of `CC1(C)CCC(C)(C)c2cc3c(cc21)CCc1c(-c2ccc(C(=O)O)cc2)coc1-3` [Example 106, 4-(4,5,7,8,9,10-Hexahydro-7,7,10,10-tetramethylanthra-[1,2-b]furan-3-yl)benzoic acid] are 26 nM and 3800 nM.
For the molecule `CC1(C)CCC(C)(C)c2cc3c(cc21)CCc1c(-c2ccc(C(=O)O)cc2)cn(Cc2cccnc2)c1-3` [Example 16, 4-[4,5,7,8,9,10-Hexahydro-7,7,10,10-tetramethyl-1(3-pyridylmethyl)anthra[1,2-b]pyrrol-3-yl]benzoic acid], the values for the IC50 in test [1] and in test [2] were under 0.5 nM and 120 nM, respectively.
For `CCCCCn1cc(-c2ccc(C(=O)O)cc2)c2c1-c1cc3c(cc1CC2)C(C)(C)CCC3(C)C` [Example 22], in that order: 32 nM and 14000 nM.
For `CC(C)n1nc(-c2ccc(C(=O)O)cc2)c2c1-c1cc3c(cc1CC2)C(C)(C)CCC3(C)C` [Example 2], in that order: 50 nM and 6700 nM.
